Common to all, as to format: cell-based
Assay [1] relates to RKO colon carcinoma cells. Nature of the assay: MTS colorimetric cell growth assay, RKO. The conditions noted are these: Homo sapiens, 120 h, read-out: RKO GI50. An excerpt: (§1) The cell cultures were kept below 20 passages (∼10 weeks) and routinely monitored (upon thawing and monthly) for Mycoplasma infections with MycoAlert Mycoplasma Detection Kit (Lonza). All cell lines were authenticated by short tandem repeat profiling to confirm their identity (Eurofins). TNKS1/2 and PARP1 biochemical assays ([27, 32]), luciferase-based WNT/β-catenin signaling pathway reporter assay ([22, 27, 32]), anti-proliferative assays, and NCI-60 tumor cell line panel screen ([7]), immunoblot analyses ([7, 32, 39]), RNA isolation, and real-time qRT-PCR ([7, 27, 39, 40]) were performed as previously described.
(§2) B, IC50 values for inhibition of TNKS1, TNKS2, and PARP1 (biochemical assays) and luciferase-based WNT/β-catenin signaling reporter assay in HEK293 cells (WNT reporter). […] Mean ± SD values from a minimum of three independent experiments are shown. For B and C, numbers in superscript indicate data from reference 22, 27, 31, and 32. […] C, MTS colorimetric cell growth assay for various concentrations of tankyrase inhibitors in treated COLO 320DM and RKO colon cancer cells. […] Data from one representative experiment of more than three repeated assays, each with six replicates, are shown.

Assay [2] has as its system WNT/β-catenin signaling. Nature of the assay: luciferase-based WNT/β-catenin signaling reporter assay in HEK293 cells. The conditions noted are these: Homo sapiens, HEK293, read-out: WNT reporter IC50. Here is the method:
as §1, with “The cell lines where obtained from ATCC or the Japanese Collection of Research Bioresources (JCRB) in 2014 and culturing was performed as described previously ([7]). The” for “The”
(In general: Reporter assays use an easily measured gene product as a stand-in for the process of interest.)

The subject of assay [3] is COLO 320DM colon carcinoma cells. Put plainly: MTS colorimetric cell growth assay, COLO 320DM. The settings on record: Homo sapiens, 120 h, read-out: COLO320DM GI50.
Source text: as §1, §2

SMILES strings stand for the structures.

What is called GI50 is the concentration giving 50% growth inhibition. The IC50 is the concentration that inhibits the measured activity by half.

`Cc1cc(N2C[C@@H](C)N[C@@H](C)C2)ncc1-c1ccc(-c2nc3c(ccn3C)c(=O)[nH]2)cc1` [AZ6102]: the GI50 in assay [1] worked out at 6700 nM; in assay [3] it was 50 nM. Besides, the IC50 in assay [2] was determined as 16 ± 4.5 nM.

`Oc1nc(-c2ccc(C(F)(F)F)cc2)nc2c1CSCC2` [XAV939]: the values for the GI50 in assay [1] and in assay [3] were 9500 nM and above 10000 nM, respectively. The IC50 in assay [2] was 220 ± 21 nM.

For the origin of these results see publication PMC9981206 (Cancer Research Communications, 2022).
